# The supplement of paper PMC6045584
# ± gives the standard deviation of the averaged measurements.
# Key:
# [1] = compound: CCN(CC)CCCCNc1ncc2cc(-c3cc(OC)cc(OC)c3)c(NC(=O)NC(C)(C)C)nc2n1; assay: surviving fraction relative to DMSO-only wells; higher = less growth inhibition; details: exposure time: 5 days
# How it was run: (§1)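 For each tumour cell line, log-phase cells were put into 384-well plates at 250–500 cells per well, then after 24 hours exposed continuously for five days to inhibitors at 0.5, 1, 5, 10, 50, 100, 500 and 1000 nM. Viability was assessed by CellTiter-Glo luminescence, with surviving fraction expressed relative to the median of DMSO-only wells. Lines were screened three times and retained only if replicate Pearson r exceeded 0.7 and median Z' exceeded 0.3.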
# DECITABINE = compound: Nc1ncn([C@H]2C[C@H](O)[C@@H](CO)O2)c(=O)n1 [DECITABINE]; assay: as above; details: exposure time: 5 days
# How it was run: as §1
Test System,surviving fraction ([1]; 0.5 nM),surviving fraction ([1]; 1 nM),surviving fraction ([1]; 5 nM),surviving fraction ([1]; 10 nM),surviving fraction ([1]; 50 nM),surviving fraction ([1]; 100 nM),surviving fraction ([1]; 500 nM),surviving fraction ([1]; 1000 nM),surviving fraction (DECITABINE; 0.5 nM),surviving fraction (DECITABINE; 1 nM),surviving fraction (DECITABINE; 5 nM),surviving fraction (DECITABINE; 10 nM),surviving fraction (DECITABINE; 50 nM),surviving fraction (DECITABINE; 100 nM),surviving fraction (DECITABINE; 500 nM),surviving fraction (DECITABINE; 1000 nM)
CAL72 BONE,1.053 ± 0.0092,1.08 ± 0.054,1.08 ± 0.082,1.01 ± 0.024,0.833 ± 0.038,0.484 ± 0.013,0.281 ± 0.022,0.208 ± 0.026,1.04 ± 0.069,1.04 ± 0.03,1.03 ± 0.088,1.028 ± 0.01,1.06 ± 0.097,1.03 ± 0.14,0.958 ± 0.097,0.782 ± 0.2
CAL120 BREAST,0.933 ± 0.032,0.918 ± 0.031,0.9335 ± 0.0035,0.928 ± 0.023,0.852 ± 0.029,0.746 ± 0.053,0.565 ± 0.021,0.537 ± 0.06,0.952 ± 0.053,0.929 ± 0.059,0.948 ± 0.072,0.952 ± 0.044,0.995 ± 0.038,0.967 ± 0.018,0.806 ± 0.017,0.717 ± 0.037
CASKI CERVIX,0.927 ± 0.03,0.907 ± 0.022,0.953 ± 0.056,0.982 ± 0.042,0.996 ± 0.013,0.941 ± 0.05,0.751 ± 0.035,0.602 ± 0.014,0.891 ± 0.044,0.919 ± 0.096,0.858 ± 0.056,0.898 ± 0.095,0.484 ± 0.033,0.368 ± 0.042,0.214 ± 0.017,0.209 ± 0.022
CHLA90 AUTONOMIC GANGLIA,0.906 ± 0.053,1.02 ± 0.046,0.892 ± 0.058,0.9023 ± 0.0046,0.907 ± 0.036,0.912 ± 0.022,0.7 ± 0.035,0.598 ± 0.072,0.953 ± 0.073,0.934 ± 0.085,0.953 ± 0.06,0.902 ± 0.017,1.01 ± 0.12,0.994 ± 0.099,0.984 ± 0.079,1 ± 0.063
CME SYNOVIAL,1.08 ± 0.089,1.254 ± 0.0095,1.24 ± 0.14,1.25 ± 0.16,1.18 ± 0.1,1.22 ± 0.05,1.06 ± 0.068,0.969 ± 0.11,1.27 ± 0.17,1.09 ± 0.072,1.19 ± 0.081,1.19 ± 0.089,0.987 ± 0.083,0.812 ± 0.063,0.484 ± 0.022,0.48 ± 0.042
COLO320DM LARGE INTESTINE,0.959 ± 0.04,1.14 ± 0.037,1.11 ± 0.08,1.05 ± 0.072,1.06 ± 0.064,1.1 ± 0.11,1.03 ± 0.068,1.1 ± 0.041,1.12 ± 0.044,1.12 ± 0.086,1.01 ± 0.076,1.03 ± 0.048,1.03 ± 0.071,0.928 ± 0.014,0.8568 ± 0.0037,0.792 ± 0.04
DU4475 BREAST,0.845 ± 0.2,0.76 ± 0.22,0.743 ± 0.13,0.795 ± 0.19,0.814 ± 0.16,0.762 ± 0.11,0.702 ± 0.2,0.703 ± 0.18,0.998 ± 0.059,0.872 ± 0.002,0.774 ± 0.11,0.782 ± 0.074,0.537 ± 0.066,0.415 ± 0.054,0.194 ± 0.015,0.167 ± 0.0061
H23 LUNG,0.958 ± 0.041,0.998 ± 0.065,0.96 ± 0.053,1.01 ± 0.054,0.983 ± 0.02,1.02 ± 0.013,1.02 ± 0.029,1.02 ± 0.079,0.987 ± 0.028,0.985 ± 0.034,0.984 ± 0.033,0.899 ± 0.028,0.803 ± 0.036,0.721 ± 0.057,0.614 ± 0.077,0.562 ± 0.048
HCC78 LUNG,0.977 ± 0.31,0.856 ± 0.038,0.997 ± 0.23,0.968 ± 0.07,0.935 ± 0.19,0.917 ± 0.093,0.964 ± 0.097,0.941 ± 0.084,0.979 ± 0.07,1.01 ± 0.11,0.899 ± 0.15,0.913 ± 0.12,0.777 ± 0.21,0.709 ± 0.025,0.213 ± 0.037,0.166 ± 0.036
HCC202 BREAST,1.05 ± 0.052,1.31 ± 0.39,1.3 ± 0.53,1.22 ± 0.13,1.27 ± 0.32,1.41 ± 0.073,1.13 ± 0.14,1.24 ± 0.061,1 ± 0.21,1.25 ± 0.5,1.23 ± 0.27,1.06 ± 0.27,1.09 ± 0.26,1.09 ± 0.16,1.23 ± 0.18,1.009 ± 0.0014
